target: T1, chimeric human H3 receptor (Homo sapiens, UniProt Q9Y5N1); test: Chimeric human H3 receptor GTP binding assay (agonist-stimulated GTP-gamma35S binding, Example 7); assay type: biochemical; details: Table II; "*" = Ki in assay of Example 7 less than 1 micromolar
T1 construct: made in house; host or cells: Sf9 insect cells (baculovirus); P2 membrane preparation
In short: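 Sf9 membranes co-expressing chimeric human H3 receptor and heterotrimeric G-protein, 35 μg/tube, in pH 7.4 Tris buffer with 10 μM GDP. Test compounds (10^−10–10^−6 M) competed against 1 μM histamine, […] GTP-gamma35S, 60 min at room temperature. Filter-bound radioactivity counted; IC50 converted to Ki by Cheng-Prusoff. Agonism/inverse agonism tested without histamine (EC50).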

T1 sequence (Q9Y5N1 with tags, fused parts or gaps): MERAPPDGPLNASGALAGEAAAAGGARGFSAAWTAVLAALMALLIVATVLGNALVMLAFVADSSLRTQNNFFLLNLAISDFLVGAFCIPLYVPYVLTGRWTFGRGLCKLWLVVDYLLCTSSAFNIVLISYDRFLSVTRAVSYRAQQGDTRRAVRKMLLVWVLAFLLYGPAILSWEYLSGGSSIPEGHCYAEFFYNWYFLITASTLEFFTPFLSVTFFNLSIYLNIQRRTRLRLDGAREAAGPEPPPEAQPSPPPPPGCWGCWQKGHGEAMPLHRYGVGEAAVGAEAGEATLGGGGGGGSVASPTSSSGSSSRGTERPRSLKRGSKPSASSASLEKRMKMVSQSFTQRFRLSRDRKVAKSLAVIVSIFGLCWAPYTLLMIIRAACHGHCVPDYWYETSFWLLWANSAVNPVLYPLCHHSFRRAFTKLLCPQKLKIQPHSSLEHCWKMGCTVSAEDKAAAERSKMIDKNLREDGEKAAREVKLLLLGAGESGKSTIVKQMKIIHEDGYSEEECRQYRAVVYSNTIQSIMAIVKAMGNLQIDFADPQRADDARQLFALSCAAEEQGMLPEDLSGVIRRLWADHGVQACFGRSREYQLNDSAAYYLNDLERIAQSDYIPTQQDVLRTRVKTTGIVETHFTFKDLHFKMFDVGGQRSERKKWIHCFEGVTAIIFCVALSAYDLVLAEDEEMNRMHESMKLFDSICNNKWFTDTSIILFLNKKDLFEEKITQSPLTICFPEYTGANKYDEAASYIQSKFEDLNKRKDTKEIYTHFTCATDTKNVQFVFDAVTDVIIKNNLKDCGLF

Ki, < 1000 nM:
COc1ccc(-c2ccc3c(c2)CCN(CC(=O)N2CCN(C4CCC4)CC2)C3)cn1 [Compound 95, 2-[2-(4-cyclobutylpiperazin-1-yl)-2-oxoethyl]-6-(6-methoxypyridin-3-yl)-1,2,3,4-tetrahydroisoquinoline]
CC(=O)c1ccc(-n2cc3c(n2)CCN(CC(=O)N2CCN(C4CCC4)CC2)C3)nc1 [Compound 96, 1-(6-{5-[2-(4-cyclobutylpiperazin-1-yl)-2-oxoethyl]-4,5,6,7-tetrahydro-2H-pyrazolo[4,3-c]pyridin-2-yl}pyridin-3-yl)ethanone]
O=C(CN1CCc2nc(Br)sc2C1)N1CCN(C2CCC2)CC1 [Compound 97, 2-bromo-5-[2-(4-cyclobutylpiperazin-1-yl)-2-oxoethyl]-4,5,6,7-tetrahydro[1,3]thiazolo [5,4-c]pyridine]
CC(=O)c1ccc(-c2nc3c(s2)CN(CC(=O)N2CCN(C4CCC4)CC2)CC3)cc1 [Compound 98, 1-(4-{5-[2-(4-cyclobutylpiperazin-1-yl)-2-oxoethyl]-4,5,6,7-tetrahydro[1,3]thiazolo [5,4-c]pyridin-2-yl}phenyl)ethanone]
CS(=O)(=O)c1cccc(-c2nc3c(s2)CN(CC(=O)N2CCN(C4CCC4)CC2)CC3)c1 [Compound 99, 5-[2-(4-cyclobutylpiperazin-1-yl)-2-oxoethyl]-2-[3-(methylsulfonyl)phenyl]-4,5,6,7-tetrahydro[1,3]thiazolo [5,4-c]pyridine]
COC(=O)c1ccc(-c2nc3c(s2)CN(CC(=O)N2CCN(C4CCC4)CC2)CC3)cc1 [Compound 100, methyl 4-{5-[2-(4-cyclobutylpiperazin-1-yl)-2-oxoethyl]-4,5,6,7-tetrahydro[1,3]thiazolo [5,4-c]pyridin-2-yl}benzoate]
CC(=O)c1ccc2c(c1)CCN(CC(=O)N1CCN(C3CCC3)CC1)CC2 [Compound 101, 1-{3-[2-(4-cyclobutylpiperazin-1-yl)-2-oxoethyl]-2,3,4,5-tetrahydro-1H-3-benzazepin-7-yl}ethanone]
N#Cc1nc2c(s1)CN(CC(=O)N1CCN(C3CCC3)CC1)CC2 [Compound 102, 5-[2-(4-cyclobutylpiperazin-1-yl)-2-oxoethyl]-4,5,6,7-tetrahydro[1,3]thiazolo [5,4-c]pyridine-2-carbonitrile]
CC(=O)c1nc2c(s1)CN(CC(=O)N1CCN(C3CCC3)CC1)CC2 [Compound 103, 1-{5-[2-(4-cyclobutylpiperazin-1-yl)-2-oxoethyl]-4,5,6,7-tetrahydro[1,3]thiazolo [5,4-c]pyridin-2-yl}ethanone]
O=C(CN1CCc2ccc(-c3cncnc3)cc2CC1)N1CCN(C2CCC2)CC1 [Compound 104, 3-[2-(4-cyclobutylpiperazin-1-yl)-2-oxoethyl]-7-pyrimidin-5-yl-2,3,4,5-tetrahydro-1H-3-benzazepine]
CS(=O)(=O)c1ccc(-c2nc3c(s2)CCN(CC(=O)N2CCN(C4CCC4)CC2)C3)cc1 [Compound 105, 5-[2-(4-cyclobutylpiperazin-1-yl)-2-oxoethyl]-2-[4-(methylsulfonyl)phenyl]-4,5,6,7-tetrahydro[1,3]thiazolo [4,5-c]pyridine]
CSc1nc2c(o1)CN(CC(=O)N1CCN(C3CCC3)CC1)CC2 [Compound 107, 5-[2-(4-cyclobutylpiperazin-1-yl)-2-oxoethyl]-2-(methylthio)-4,5,6,7-tetrahydro[1.3]oxazolo [5,4-c]pyridine]
O=C(CN1CCc2sc(Br)nc2C1)N1CCN(C2CCC2)CC1 [Compound 108, 2-bromo-5-[2-(4-cyclobutylpiperazin-1-yl)-2-oxoethyl]-4,5,6,7-tetrahydro[1,3] thiazolo [4,5-c]pyridine]
CC1CN(C(=O)CN2CCc3nc(Cl)sc3C2)CCN1C1CCC1 (centres unmarked) [Compound 109, 2-chloro-5-[2-(4-cyclobutyl-3-methylpiperazin-1-yl)-2-oxoethyl]-4,5,6,7-tetrahydro[1,3] thiazolo [5,4-c]pyridine]
O=C(CN1CCc2nc(-c3cncnc3)sc2C1)N1CCCC1CN1CCCC1 (centres unmarked) [Compound 110, 5-{2-oxo-2-[2-(pyrrolidin-1-ylmethyl)pyrrolidin-1-yl]ethyl}-2-pyrimidin-5-yl-4,5,6,7-tetrahydro[1,3] thiazolo [5,4-c]pyridine]
CC1CN(C(=O)CN2CCc3nc(-c4cncnc4)sc3C2)CCN1C1CCC1 (centres unmarked) [Compound 111, 5-[2-(4-cyclobutyl-3-methylpiperazin-1-yl)-2-oxoethyl]-2-pyrimidin-5-yl-4,5,6,7-tetrahydro[1,3] thiazolo [5,4-c]pyridine]
CC1CN(C(=O)CN2CCc3nc(-c4cscn4)sc3C2)CCN1C1CCC1 (centres unmarked) [Compound 113, 5-[2-(4-cyclobutyl-3-methylpiperazin-1-yl)-2-oxoethyl]-2-(1,3-thiazol-4-yl)-4,5,6,7-tetrahydro[1,3]thiazolo [5,4-c]pyridine]
CC1CN(C(=O)CN2CCc3nc(-c4ccncc4)sc3C2)CCN1C1CCC1 (centres unmarked) [Compound 114, 5-[2-(4-cyclobutyl-3-methylpiperazin-1-yl)-2-oxoethyl]-2-pyridin-4-yl-4,5,6,7-tetrahydro[1,3]thiazolo [5,4-c]pyridine]
CC1CN(C(=O)CN2CCc3nc(-c4nccs4)sc3C2)CCN1C1CCC1 (centres unmarked) [Compound 115, 5-[2-(4-cyclobutyl-3-methylpiperazin-1-yl)-2-oxoethyl]-2-(1,3-thiazol-2-yl)-4,5,6,7-tetrahydro[1,3]thiazolo [5,4-c]pyridine]
CCOC(=O)c1cnc2c(c1)CCN(CC(=O)N1CCN(C3CCC3)CC1)C2 [Compound 116, ethyl 7-[2-(4-cyclobutylpiperazin-1-yl)-2-oxoethyl]-5,6,7,8-tetrahydro-1,7-naphthyridine-3-carboxylate]
CCOC(=O)c1cnc2c(c1)CCN(CC(=O)N1CCN(C3CCC3)C(C)C1)C2 (centres unmarked) [Compound 117, ethyl 7-[2-(4-cyclobutyl-3-methylpiperazin-1-yl)-2-oxoethyl]-5,6,7,8-tetrahydro-1,7-naphthyridine-3-carboxylate]
O=C(CN1CCc2cc(Br)ccc2C1)N1CCN(C2CCC2)CC1 [Compound 118, 6-bromo-2-[2-(4-cyclobutylpiperazin-1-yl)-2-oxoethyl]-1,2,3,4-tetrahydroisoquinoline]
O=C(CN1CCc2cc(-c3cscn3)ccc2C1)N1CCN(C2CCC2)CC1 [Compound 119, 2-[2-(4-cyclobutylpiperazin-1-yl)-2-oxoethyl]-6-(1,3-thiazol-4-yl)-1,2,3,4-tetrahydroisoquinoline]
O=C(CN1CCc2cc(-c3nccs3)ccc2C1)N1CCN(C2CCC2)CC1 [Compound 120, 2-[2-(4-cyclobutylpiperazin-1-yl)-2-oxoethyl]-6-(1,3-thiazol-2-yl)-1,2,3,4-tetrahydroisoquinoline]
CNC(=O)c1cnc2c(c1)CCN(CC(=O)N1CCN(C3CCC3)C(C)C1)C2 (centres unmarked) [Compound 121, 7-[2-(4-cyclobutyl-3-methylpiperazin-1-yl)-2-oxoethyl]-N-methyl-5,6,7,8-tetrahydro-1,7-naphthyridine-3-carboxamide]
O=C(CN1CCc2cc(-n3cccn3)ccc2C1)N1CCN(C2CCC2)CC1 [Compound 122, 2-[2-(4-cyclobutylpiperazin-1-yl)-2-oxoethyl]-6-(1H-pyrazol-1-yl)-1,2,3,4-tetrahydroisoquinoline]
O=C(CN1CCc2cn(-c3cccnc3)nc2C1)N1CCN(C2CCC2)CC1 [Compound 123, 6-[2-(4-cyclobutylpiperazin-1-yl)-2-oxoethyl]-2-pyridin-3-yl-4,5,6,7-tetrahydro-2H-pyrazolo[3,4-c]pyridine]
O=C(CN1CCc2cn(-c3cncnc3)nc2C1)N1CCN(C2CCC2)CC1 [Compound 124, 6-[2-(4-cyclobutylpiperazin-1-yl)-2-oxoethyl]-2-pyrimidin-5-yl-4,5,6,7-tetrahydro-2H-pyrazolo[3,4-c]pyridine]
O=C(NC1CCC1)c1ccc2c(n1)CCN(CC(=O)N1CCN(C3CCC3)CC1)C2 [Compound 125, N-cyclobutyl-6-[2-(4-cyclobutylpiperazin-1-yl)-2-oxoethyl]-5,6,7,8-tetrahydro-1,6-naphthyridine-2-carboxamide]
CC1CN(C(=O)CN2CCc3nc(C(=O)NC4CCC4)ccc3C2)CCN1C1CCC1 (centres unmarked) [Compound 126, N-cyclobutyl-6-[2-(4-cyclobutyl-3-methylpiperazin-1-yl)-2-oxoethyl)-5,6,7,8-tetrahydro-1,6-naphthyridine-2-carboxamide]
Cn1cc(-c2ccc3c(c2)CCN(CC(=O)N2CCN(C4CCC4)CC2)C3)cn1 [Compound 127, 2-[2-(4-cyclobutylpiperazin-1-yl)-2-oxoethyl]-6-(1-methyl-1H-pyrazol-4-yl)1,2,3,4-tetrahydroisoquinoline]
O=C(CN1CCc2cc(-c3cnccn3)ccc2C1)N1CCN(C2CCC2)CC1 [Compound 128, 2-[2-(4-cyclobutylpiperazin-1-yl)-2-oxoethyl]-6-pyrazin-2-yl-1,2,3,4-tetrahydroisoquinoline]
O=C(CN1CCc2cc(-c3cccnn3)ccc2C1)N1CCN(C2CCC2)CC1 [Compound 129, 2-[2-(4-cyclobutylpiperazin-1-yl)-2-oxoethyl]-6-pyridazin-3-yl-1,2,3,4-tetrahydroisoquinoline]
O=C(CN1CCc2cc(-c3ccccn3)ccc2C1)N1CCN(C2CCC2)CC1 [Compound 130, 2-[2-(4-cyclobutylpiperazin-1-yl)-2-oxoethyl]-6-pyridin-2-yl-1,2,3,4-tetrahydroisoquinoline]
O=C(CN1CCc2cc(-c3ncccn3)ccc2C1)N1CCN(C2CCC2)CC1 [Compound 131, 2-[2-(4-cyclobutylpiperazin-1-yl)-2-oxoethyl]-6-pyrimidin-2-yl-1,2,3,4-tetrahydroisoquinoline]

Source: patent publication US20110082130A1 (LIGAND PHARMACEUTICALS, INC., priority 2006, published 2011)
